Values after ≈ are worked out from the molar mass of the structure shown.
Legend:
Type in all cases: functional
Details in all cases: time 20-24 hrs
Staphylococcus aureus [1] = experiment: Antibacterial activity against methicillin-resistant Staphylococcus aureus ATCC BAA-1720 assessed as inhibition of bacterial growth incubated for 20 to 24 hrs by broth micro dilution method
Enterococcus faecalis = experiment: Antibacterial activity against Enterococcus faecalis ATCC 29212 assessed as inhibition of bacterial growth incubated for 20 to 24 hrs by broth micro dilution method
Enterococcus faecium [2] = experiment: Antibacterial activity against Enterococcus faecium ATCC 49624 assessed as inhibition of bacterial growth incubated for 20 to 24 hrs by broth micro dilution method
Bacillus subtilis = experiment: Antibacterial activity against Bacillus subtilis CMCC (B) 63501 assessed as inhibition of bacterial growth incubated for 20 to 24 hrs by broth micro dilution method
Enterococcus faecium [3] = experiment: Antibacterial activity against vancomycin-resistant Enterococcus faecium clinical isolate assessed as inhibition of bacterial growth incubated for 20 to 24 hrs by broth micro dilution method
Escherichia coli [4] = experiment: Antibacterial activity against Escherichia coli ATCC 25922 assessed as inhibition of bacterial growth incubated for 20 to 24 hrs by broth micro dilution method
Staphylococcus aureus [5] = experiment: Antibacterial activity against methicillin-resistant Staphylococcus aureus ATCC 33592 assessed as inhibition of bacterial growth incubated for 20 to 24 hrs by broth micro dilution method
Staphylococcus aureus [6] = experiment: Antibacterial activity against Staphylococcus aureus ATCC 29213 assessed as inhibition of bacterial growth incubated for 20 to 24 hrs by broth micro dilution method
Enterococcus faecium [7] = experiment: Antibacterial activity against vancomycin resistant Enterococcus faecium ATCC 700221 assessed as inhibition of bacterial growth incubated for 20 to 24 hrs by broth micro dilution method
Escherichia coli [8] = experiment: Antibacterial activity against Escherichia coli ATCC 8739 assessed as inhibition of bacterial growth incubated for 20 to 24 hrs by broth micro dilution method
Pseudomonas aeruginosa = experiment: Antibacterial activity against […] Pseudomonas aeruginosa ATCC 27853 assessed as inhibition of bacterial growth incubated for 20 to 24 hrs by broth micro dilution method
Escherichia coli [9] = experiment: Antibacterial activity against NDM-1 expressing Escherichia coli ATCC BAA2469 assessed as inhibition of bacterial growth incubated for 20 to 24 hrs by broth micro dilution method
Staphylococcus aureus [10] = experiment: Antibacterial activity against vancomycin-intermediate Staphylococcus aureus Mu50 assessed as inhibition of bacterial growth incubated for 20 to 24 hrs by broth micro dilution method
[11] = test system: Staphylococcus epidermidis; experiment: Antibacterial activity against Staphylococcus epidermidis ATCC 12228 assessed as inhibition of bacterial growth incubated for 20 to 24 hrs by broth micro dilution method
Staphylococcus aureus [12] = experiment: Antibacterial activity against methicillin-resistant Staphylococcus aureus ATCC 43300 assessed as inhibition of bacterial growth incubated for 20 to 24 hrs by broth micro dilution method
Klebsiella pneumoniae = experiment: Antibacterial activity against NDM-1 expressing Klebsiella pneumoniae ATCC BAA 2470 assessed as inhibition of bacterial growth incubated for 20 to 24 hrs by broth micro dilution method
Acinetobacter baumannii = experiment: Antibacterial activity against multi-drug resistant Acinetobacter baumannii ATCC 19606 assessed as inhibition of bacterial growth incubated for 20 to 24 hrs by broth micro dilution method

| Structure (SMILES) | MIC (Staphylococcus aureus [1]) | MIC (Enterococcus faecalis) | MIC (Enterococcus faecium [2]) | MIC (Bacillus subtilis) | MIC (Enterococcus faecium [3]) | MIC (Escherichia coli [4]) | MIC (Staphylococcus aureus [5]) | MIC (Staphylococcus aureus [6]) | MIC (Enterococcus faecium [7]) | MIC (Escherichia coli [8]) | MIC (Pseudomonas aeruginosa) | MIC (Escherichia coli [9]) | MIC (Staphylococcus aureus [10]) | MIC [11] | MIC (Staphylococcus aureus [12]) | MIC (Klebsiella pneumoniae) | MIC (Acinetobacter baumannii) |
| --- | --- | --- | --- | --- | --- | --- | --- | --- | --- | --- | --- | --- | --- | --- | --- | --- | --- |
| CN(C)c1ccc(/C=C/c2cc(N3CCOCC3)c3ccccc3[n+]2C)cc1.[I-] | 64 µg/mL | > 64 µg/mL | 8 µg/mL | 32 µg/mL | 32 µg/mL | > 64 µg/mL | 64 µg/mL | 32 µg/mL | 16 µg/mL | > 64 µg/mL | > 64 µg/mL | > 64 µg/mL | 32 µg/mL | 16 µg/mL | 64 µg/mL | > 64 µg/mL | > 64 µg/mL |
| CN(C)c1ccc(/C=C/c2cc(NCCCc3ccccc3)c3ccccc3[n+]2C)cc1.[I-] | 2 µg/mL | 8 µg/mL | 4 µg/mL | 4 µg/mL | 4 µg/mL | > 64 µg/mL | 2 µg/mL | 2 µg/mL | 4 µg/mL | > 64 µg/mL | > 64 µg/mL | > 64 µg/mL | 4 µg/mL | 2 µg/mL | 2 µg/mL | > 64 µg/mL | > 64 µg/mL |
| CN(C)c1ccc(/C=C/c2cc(N3CCOCC3)[n+](C)c3ccccc23)cc1.[I-] | > 64 µg/mL | > 64 µg/mL | 8 µg/mL | 16 µg/mL | > 64 µg/mL | > 64 µg/mL | 64 µg/mL | 32 µg/mL | 32 µg/mL | > 64 µg/mL | > 64 µg/mL | > 64 µg/mL | 32 µg/mL | 16 µg/mL | > 64 µg/mL | > 64 µg/mL | > 64 µg/mL |
| CN(C)c1ccc(/C=C/c2cc(NCCCO)c3ccccc3[n+]2C)cc1.[I-] | 64 µg/mL | 16 µg/mL | 8 µg/mL | > 64 µg/mL | > 64 µg/mL | > 64 µg/mL | 32 µg/mL | 32 µg/mL | 16 µg/mL | > 64 µg/mL | > 64 µg/mL | > 64 µg/mL | 16 µg/mL | 8 µg/mL | 64 µg/mL | > 64 µg/mL | > 64 µg/mL |
| O=C(O)c1cn(C2CC2)c2cc(N3CCNCC3)c(F)cc2c1=O [CIPROFLOXACIN] | > 64 µg/mL | 4 µg/mL (≈ 12.1 µM) | 32 µg/mL (≈ 96.6 µM) | 0.25 µg/mL (≈ 0.754 µM) | – | – | – | 0.25 µg/mL (≈ 0.754 µM) | > 64 µg/mL | < 0.125 µg/mL | 1 µg/mL (≈ 3.02 µM) | > 64 µg/mL | 1 µg/mL (≈ 3.02 µM) | 1 µg/mL (≈ 3.02 µM) | 2 µg/mL (≈ 6.04 µM) | > 64 µg/mL | – |
| CN(C)c1ccc(/C=C/c2ccc3ccccc3[n+]2C)cc1.[I-] | – | > 64 µg/mL | 8 µg/mL | 64 µg/mL | – | – | – | 16 µg/mL | – | – | – | – | – | 16 µg/mL | – | – | – |
| CCCNc1cc(/C=C/c2ccc(N(C)C)cc2)[n+](C)c2ccccc12.[I-] | 4 µg/mL | 4 µg/mL | 16 µg/mL | 16 µg/mL | 8 µg/mL | 32 µg/mL | 4 µg/mL | 8 µg/mL | 4 µg/mL | > 64 µg/mL | > 64 µg/mL | > 64 µg/mL | 8 µg/mL | 2 µg/mL | 8 µg/mL | > 64 µg/mL | > 64 µg/mL |
| CN(C)c1ccc(/C=C/c2cc[n+](C)c3ccccc23)cc1.[I-] | – | > 64 µg/mL | 16 µg/mL | 64 µg/mL | – | – | – | 16 µg/mL | – | – | – | – | – | 16 µg/mL | – | – | – |
| CN(C)c1ccc(/C=C/c2cc(NCCCO)[n+](C)c3ccccc23)cc1.[I-] | 64 µg/mL | > 64 µg/mL | > 64 µg/mL | 32 µg/mL | 64 µg/mL | > 64 µg/mL | 64 µg/mL | > 64 µg/mL | 64 µg/mL | > 64 µg/mL | > 64 µg/mL | > 64 µg/mL | 64 µg/mL | 64 µg/mL | > 64 µg/mL | > 64 µg/mL | > 64 µg/mL |
| CC1(C)S[C@@H]2[C@H](NC(=O)[C@H](N)c3ccccc3)C(=O)N2[C@H]1C(=O)O [AMPICILLIN] | > 64 µg/mL | 1 µg/mL (≈ 2.86 µM) | 2 µg/mL (≈ 5.72 µM) | 4 µg/mL (≈ 11.4 µM) | > 64 µg/mL | – | 64 µg/mL (≈ 183 µM) | > 64 µg/mL | 0.25 µg/mL (≈ 0.715 µM) | 16 µg/mL (≈ 45.8 µM) | > 64 µg/mL | > 64 µg/mL | 0.125 µg/mL (≈ 0.358 µM) | > 64 µg/mL | > 64 µg/mL | > 64 µg/mL | > 64 µg/mL |
| CCCNc1cc(/C=C/c2ccc(N(C)C)cc2)c2ccccc2[n+]1C.[I-] | 16 µg/mL | 64 µg/mL | 32 µg/mL | 16 µg/mL | 16 µg/mL | > 64 µg/mL | > 64 µg/mL | > 64 µg/mL | 16 µg/mL | > 64 µg/mL | > 64 µg/mL | > 64 µg/mL | 32 µg/mL | 32 µg/mL | 32 µg/mL | > 64 µg/mL | > 64 µg/mL |
| CCCCNc1cc(/C=C/c2ccc(N(C)C)cc2)[n+](C)c2ccccc12.[I-] | 2 µg/mL | 2 µg/mL | 16 µg/mL | 8 µg/mL | 8 µg/mL | 32 µg/mL | 2 µg/mL | 4 µg/mL | 4 µg/mL | > 64 µg/mL | > 64 µg/mL | > 64 µg/mL | 4 µg/mL | 2 µg/mL | 4 µg/mL | > 64 µg/mL | > 64 µg/mL |
| CN[C@H](CC(C)C)C(=O)N[C@H]1C(=O)N[C@@H](CC(N)=O)C(=O)N[C@H]2C(=O)N[C@H]3C(=O)N[C@H](C(=O)N[C@H](C(=O)O)c4cc(O)cc(O)c4-c4cc3ccc4O)[C@H](O)c3ccc(c(Cl)c3)Oc3cc2cc(c3O[C@@H]2O[C@H](CO)[C@@H](O)[C@H](O)[C@H]2O[C@H]2C[C@](C)(N)[C@H](O)[C@H](C)O2)Oc2ccc(cc2Cl)[C@H]1O [VANCOMYCIN] | – | 2 µg/mL (≈ 1.38 µM) | – | 0.25 µg/mL (≈ 0.173 µM) | > 64 µg/mL | > 64 µg/mL | – | – | 1020 µg/mL (≈ 707 µM) | > 64 µg/mL | > 64 µg/mL | > 64 µg/mL | 32 µg/mL (≈ 22.1 µM) | > 64 µg/mL | – | > 64 µg/mL | > 64 µg/mL |
